Experimental data published in ChEMBL document CHEMBL1201862, “PubChem BioAssay data set” (2004).
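In this assay, cells in 96-well plates receive the compound at five concentrations for 48 hours. Endpoints are linearly interpolated between the surrounding concentrations. GI50 is the concentration that inhibits growth by half.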 Activity calls are given as the source filed them. Rule as the data show it: active = GI50 up to about 1.1 µM and inactive = higher.

Experiments:
Test in all cases: growth of human tumour cells (NCI), 48 h
ACHN = system: ACHN
BT-549 = system: BT-549
CAKI-1 = system: CAKI-1
CCRF-CEM = system: CCRF-CEM
COLO 205 = system: COLO 205
DU-145 = system: DU-145
HCC 2998 = system: HCC 2998
HCT-116 = system: HCT-116
HOP-62 = system: HOP-62
Hs-578T = system: Hs-578T
LOX IMVI = system: LOX IMVI
M14 = system: M14
MDA-N = system: MDA-N
MOLT-4 = system: MOLT-4
NCI-H460 = system: NCI-H460
OVCAR-4 = system: OVCAR-4
OVCAR-5 = system: OVCAR-5
SF-268 = system: SF-268
SR = system: SR
UACC-257 = system: UACC-257

Measured: GI50

CC(C)(C)C1CCC2(CC1)CCN(CCCN1CCOCC1)CC2
inactive: ACHN > 73.3 µM | BT-549 > 100 µM | CAKI-1 > 34.7 µM | CCRF-CEM 25.4 µM | COLO 205 16.3 µM | DU-145 > 100 µM | HCC 2998 16.9 µM | HCT-116 27.6 µM | HOP-62 > 41.5 µM | Hs-578T 35 µM | LOX IMVI 18.9 µM | M14 12.2 µM | MDA-N 28.8 µM | MOLT-4 24.5 µM | NCI-H460 39.7 µM | OVCAR-4 > 93.8 µM | OVCAR-5 > 60 µM | SF-268 > 83 µM | SR 27.1 µM | UACC-257 11.9 µM

Cc1cc(Cl)cc2c1NC(=O)/C2=N\Nc1ccccc1[N+](=O)[O-]
inactive: ACHN > 100 µM | BT-549 > 100 µM | CAKI-1 > 100 µM | CCRF-CEM 21.1 µM | COLO 205 > 100 µM | DU-145 78.2 µM | HCC 2998 > 100 µM | HCT-116 > 100 µM | HOP-62 50.5 µM | Hs-578T 35.3 µM | LOX IMVI 84.7 µM | M14 > 100 µM | MDA-N > 100 µM | MOLT-4 74.3 µM | NCI-H460 > 100 µM | OVCAR-4 > 100 µM | OVCAR-5 > 100 µM | SF-268 > 100 µM | SR 16.7 µM | UACC-257 > 100 µM

O=c1[nH]nc(-c2ccc3ccccc3c2)[nH]1
inactive: ACHN > 100 µM | BT-549 > 100 µM | CAKI-1 > 100 µM | CCRF-CEM > 100 µM | COLO 205 > 100 µM | DU-145 > 100 µM | HCC 2998 > 100 µM | HCT-116 > 100 µM | HOP-62 > 100 µM | Hs-578T 2.81 µM | LOX IMVI > 100 µM | M14 > 100 µM | MDA-N > 100 µM | MOLT-4 > 100 µM | NCI-H460 > 100 µM | OVCAR-4 > 100 µM | OVCAR-5 > 100 µM | SF-268 > 100 µM | SR 45.1 µM | UACC-257 > 100 µM

OC(CC1CCCCN1)c1ccc2c(c1)oc1ccccc12 (stereo not given)
inactive: ACHN > 100 µM | BT-549 > 100 µM | CAKI-1 52.8 µM | CCRF-CEM 33.3 µM | COLO 205 19.1 µM | DU-145 > 100 µM | HCC 2998 30.4 µM | HCT-116 85.3 µM | HOP-62 91.2 µM | Hs-578T 87.7 µM | LOX IMVI 56 µM | M14 18.8 µM | MDA-N 40.8 µM | MOLT-4 28.2 µM | NCI-H460 43.6 µM | OVCAR-4 94.2 µM | OVCAR-5 50.1 µM | SF-268 > 100 µM | SR 67.3 µM | UACC-257 31 µM
